Experimental data taken from patent US10900093B2, “Molecular marker of plasmodium falciparum artemisinin resistance” (priority 2013, dated 2021).

Experiments:
Format in all cases: cell-based, Plasmodium falciparum
[1] = system: Cambodian parasite isolates (0-3h post-invasion ring-stage parasites); experiment: Ring-stage Survival Assay (RSA0-3h), culture-adapted Cambodian parasite isolates stratified by K13-propeller allele
Procedure: Fifty clinical P. falciparum isolates from Cambodia (collected in 2010 and 2011) were adapted to in vitro culture as described by Witkowski et al.^45. […] Parasite DNA was extracted from frozen blood aliquots (200 μl) using the Mini blood kit (Qiagen).
(§1) The Ring-stage Survival Assay (RSA^0-3h) was carried out as described by Witkowski et al^13 using highly synchronous parasite cultures. In brief, 0-3h post-invasion ring-stage parasites were exposed to 700 nM DHA [dihydroartemisinin, obtained from WWARN (www.wwarn.org/research/tools/qaqc)] or its solvent DMSO for 6 h, washed and then cultivated for the next 66 h without drug. Survival rates were assessed microscopically by counting in Giemsa-stained thin smears the proportion of viable parasites that developed into second-generation rings or trophozoites with normal morphology.

[2] = system: F32-TEM line (0-3h post-invasion ring-stage parasites); experiment: Ring-stage Survival Assay (RSA0-3h), F32-TEM line; settings: last mock pressure cycle, 700 nM DHA for 6 h, n=3
Procedure: as §1
(§2) The F32-ART5 samples tested in the Ring-stage Survival Assay (RSA^0-3h) were collected at the time of the 17th, 48th and 122nd pressure cycles (0.04, 2.7 and 9 μM ART), respectively. The F32-TEM sample was collected at the last mock pressure cycle. The RSA0-3h survival rates were determined in triplicate experiments with different batches of red blood cells, and evaluated as above using Giemsa-stained thin smears read by two independent microscopists (B. W. and F. B.-V.). Survival rates were compared using Mann-Whitney U test. […] The RSA^0-3h survival rate of the F32-TEM line was also determined in triplicate experiments (n=3, median 0%, IQR 0-0.05, P=0.81 for #TEM vs. #17, Mann-Whitney U test).

[3] = system: F32-ART5 parasite line (0-3h post-invasion ring-stage parasites); experiment: Ring-stage Survival Assay (RSA0-3h), F32-ART5 lineage; settings: for RSA0-3h survival rate (median): 700 nM DHA for 6 h, n=3
Procedure: as §1, §2

[4] = system: 3D7 parasites; experiment: Ring-stage Survival Assay (RSA0-3h), control 3D7 parasites
Procedure: as §1

C[C@H]1[C@@H](O)O[C@@H]2O[C@@]3(C)CC[C@H]4[C@H](C)CC[C@@H]1[C@@]24OO3 [DHA, dihydroartemisinin]
RSA0-3h survival rate (median) ([1]; isolates with wildtype K13-propeller alleles, n=16): 0.17% | RSA0-3h survival rate (median) ([1]; wildtype K13-propeller, n=17 (FIG. 2), 700 nM DHA for 6 h): 0.16% | RSA0-3h survival rate (median) ([1]; {}): 18.8% | RSA0-3h survival rates (range) ([1]; {}): 3.8%-58% | RSA0-3h survival rate (median) [2]: 0% | RSA0-3h survival rate (median) ([3]; F32-ART5 at drug-pressure cycle #17): 0% | RSA0-3h survival rate (median) ([3]; F32-ART5 at drug-pressure cycle #48): 11.7% | RSA0-3h survival rate (median) ([3]; F32-ART5 at drug-pressure cycle #122): 12.8% | RSA0-3h survival rate ([3]; F32-ART5 lineage after appearance of PF3D7_0110400 D56V and PF3D7_1343700 M476I mutations): 12.8% | RSA0-3h survival rate ([3]; F32-ART5 lineage before appearance of PF3D7_0110400 D56V and PF3D7_1343700 M476I mutations): less than 0.01% | RSA0-3h survival rate [4]: 0.04%
